Measurements taken from patent US11359178B2, “Method for producing parasympathetic neurons” (NATIONAL INSTITUTE OF ADVANCED INDUSTRIAL SCIENCE AND …, priority 2018, dated 2022).

Tests used:
[1] = tested on: parasympathetic neurons obtained by culturing in the differentiation-inducing medium 3 (NDM+PMA+RA); conditions: nicotine 1 μM; neurons induced in NDM+PMA+RA, 13th to 37th day from start of culturing
Description: Furthermore, response to nicotine stimulation for parasympathetic neurons obtained by culturing in the differentiation-inducing medium 3 (NDM+PMA+RA) was assessed by intracellular calcium imaging. 1 mg/mL Fluo-4 AM (Invitrogen, F14201)/DMSO was directly added to a medium on the differentiation induction culture 24th day at a final concentration of 5 μg/mL. After incubation in an incubator (37° C., 5% CO2) for 30 minutes, the medium was removed and replaced with Ringer's solution (149 mM NaCl, 2.8 mM KCl, 2 mM CaCl2, 1 mM MgCl2, 10 mM HEPES, 10 mM D-(+)-glucose [pH 7.4]), and changes in the intracellular calcium concentrations were measured by detecting changes in the fluorescence intensity. For the measurement, 300 frames were photographed at a frame rate of 2 fps using an Olympus microscope (IX81), EMCCD (Andor iXon), and MetaMorph Software (Molecular Devices). Additionally, nicotine stimulation was performed by adding nicotine to Ringer's solution at a final concentration of 1 μM. ImageJ was used for data analysis after measurement.

[2] = tested on: autonomic neural progenitor cells; test: Induction of autonomic neural progenitor cells to differentiate into parasympathetic neurons, immune cell staining (TH, ChAT, PHOX2B, MAP2); format: cell-based, Human
Description: A 24-well plate coated with poly-L-ornithine and laminin was prepared by the following procedure. The plate was coated for one hour with a PLO solution (20 μg/mL) prepared with DW, washed once with DW, and coated for two hours with a laminin solution (5 μg/mL) prepared with PBS. Subsequently, the N2 medium was supplemented with 10 μM FSK, 10 ng/mL BDNF, 10 ng/mL GDNF, 10 ng/mL NT-3, 10 ng/mL NGF, and 50 μg/mL Ascorbic Acid (all final concentrations) to prepare a neural differentiation medium (NDM).
The following four kinds of differentiation-inducing media were prepared using NDM:
Differentiation-inducing medium 1: NDM+10 ng/mL PMA (final concentration)
Differentiation-inducing medium 2: NDM+1 μM RA (final concentration)
Differentiation-inducing medium 3: NDM+10 ng/mL PMA+1 μM RA (both final concentrations)
Differentiation-inducing medium 4: NDM only (by a known method)
The autonomic neural progenitor cells obtained by the above-described Step 5 were washed once with PBS, followed by addition of TrypLE Express Enzyme (250 μL/well), and cells were exfoliated by incubating the medium for five minutes. 10% FBS-containing DMEM was added to terminate the enzyme reaction, and the cells were collected in a centrifuge tube. After the medium was centrifuged at 200×g for four minutes, the supernatant was removed, cells were suspended with NDM, and the cells were counted. […] The media cultured for at least 20 days from the start of culturing with the differentiation-inducing media 1 to 4 were analyzed by immune staining and intracellular calcium imaging following the procedure described below. […]
The primary antibody solution was removed, and the plate was washed twice with 0.2% Tween 20/PBS, followed by addition of a secondary antibody/Can Get Signal Solution A (1000-fold diluted Alexa Fluro488 or 1000-fold diluted Alexa Fluor555) or 3000-fold diluted Hoechst 33342 solution, and the mixture was allowed to stand for one hour at room temperature. The secondary antibody solution was removed, and the plate was washed twice with 0.2% Tween 20/PBS and then observed under a fluorescence microscope.

GATA3 = conditions: Yamashita et al. 2002; Th2 cell differentiation; cited from earlier work
[3] = differentiation induction 13th to 87th day from start of culturing, 10 ng/mL PMA and/or 1 μM RA in NDM, compared with NDM only (FIG. 2)

| Compound | response to nicotine stimulation (intracellular calcium, Fluo-4 AM fluorescence) [1] | differentiation induction efficiency ([2]; 13th to 87th day, single additive in NDM, compared with NDM only) | ChAT positive cells (parasympathetic neuron marker) [2, 3] | TH positive cells (sympathetic neuron marker) [2, 3] | expression of transcription factor GATA3 (GATA3) |
| --- | --- | --- | --- | --- | --- |
| CN1CCCC1c1cccnc1 (single isomer, unassigned; (-)) [nicotine, (−)-Nicotine] | strong response | – | – | – | – |
| CCCCCCCCCCCCCC(=O)O[C@@H]1[C@@H](C)[C@@]2(O)[C@@H](C=C(CO)C[C@]3(O)C(=O)C(C)=C[C@@H]23)[C@@H]2C(C)(C)[C@]12OC(C)=O [PMA, Phorbol 12-myristate 13-acetate] | – | reduced | markedly reduced | markedly reduced | enhance |
